This note sets out measurements from US20090012488A1, “Super-Absorber Having Improved Smell-Inhibition” (BASF SE, priority 2006, published 2009).

The assay deals with T1, urease (from jack beans) (Canavalia ensiformis, UniProt P07374).
T1 construct: solid urease (from jack beans); lyophilized 5 U/mg for urea assay in serum; purchased Merck article No. 4194753; host or cells: jack beans (natural source)
The format is biochemical. The settings on record: comparison of inventive with comparative examples, table 1. The method, then:
To evaluate the odor-inhibiting effect of the compositions of the present invention, the inhibition of the activity of urease in the formation of ammonia from urea is determined. The determination is carried out at room temperature. 2 g of the substance to be tested (superabsorbent, composition according to the present invention) are weighed into a 100 ml Erlenmeyer flask. 30 mg of solid urease (from jack beans; lyophilized 5 U/mg for urea assay in serum; Merck, article No. 4194753) is weighed into a 100 ml glass beaker. 50 ml of 0.9% sodium chloride solution in urea (8.56 g/L) are added to the urease. The entire contents of the glass beaker are poured swiftly onto the sample in the Erlenmeyer flask, a diffusion tubelet (Dräger Röhrchen, ammonia 20/a-D, 20-1500 ppm*h, order No. 8101301) is as intended broken open, inserted into a rubber stopper which fits the Erlenmeyer flask and the Erlenmeyer flask is sealed with the stopper such that the open end of the diffusion tubelet points inward. […] The measurement is in each case carried out as a duplicate determination, and the result reported is the average between the two readings which has been rounded to the nearest whole number.

T1 sequence (P07374 whole entry, looked up): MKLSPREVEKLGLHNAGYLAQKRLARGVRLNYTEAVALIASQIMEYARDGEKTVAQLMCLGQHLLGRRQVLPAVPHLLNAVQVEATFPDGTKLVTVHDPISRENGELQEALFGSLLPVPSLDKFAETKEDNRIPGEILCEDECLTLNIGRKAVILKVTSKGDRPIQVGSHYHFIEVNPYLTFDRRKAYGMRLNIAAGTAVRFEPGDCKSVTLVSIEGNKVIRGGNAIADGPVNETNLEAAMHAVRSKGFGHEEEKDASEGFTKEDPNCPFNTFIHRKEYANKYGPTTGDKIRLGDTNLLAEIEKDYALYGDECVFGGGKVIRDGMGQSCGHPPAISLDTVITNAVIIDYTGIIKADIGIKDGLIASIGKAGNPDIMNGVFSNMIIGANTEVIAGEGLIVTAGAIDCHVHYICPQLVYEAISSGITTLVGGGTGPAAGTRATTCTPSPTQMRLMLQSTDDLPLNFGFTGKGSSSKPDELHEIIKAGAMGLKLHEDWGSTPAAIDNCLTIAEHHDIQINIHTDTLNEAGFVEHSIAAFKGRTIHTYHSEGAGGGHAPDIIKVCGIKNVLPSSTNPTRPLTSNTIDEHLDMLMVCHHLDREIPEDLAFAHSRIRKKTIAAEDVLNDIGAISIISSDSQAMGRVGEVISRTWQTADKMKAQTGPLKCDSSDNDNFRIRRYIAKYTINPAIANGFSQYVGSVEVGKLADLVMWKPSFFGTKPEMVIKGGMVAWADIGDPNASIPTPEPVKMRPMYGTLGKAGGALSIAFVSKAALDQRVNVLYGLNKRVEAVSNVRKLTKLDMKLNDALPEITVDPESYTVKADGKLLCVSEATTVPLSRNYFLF

For `O=CC(=O)O` [glyoxylic acid], the “odor-inhibiting effect (in words)” value is listed as “demonstrates an odor-inhibiting effect”.
